Patent EP0229313A2, “Compound related to antibiotic TAN-749 and their production” (priority 1985, dated 1987)
Converted amounts (≈) assume the structure as drawn. Like-named read-outs stand apart in the source and are kept apart here.

Key:
[1] = system: Citrobacter freundii IFO 12681; experiment: Antibacterial spectrum, MIC on agar (Table 3); format: cell-based; conditions: Bacto-Antibiotic Medium 3 + yeast extract + agar, inoculum approx. 10^6 CFU/mℓ, dihydrochlorides
Source text: (§1) Tables 3 and 4 show the antibacterial spectra of TAN-749A, B, C, and D (dihydrochlorides) against various microbes.

[2] = system: Escherichia coli NIHJ JC2; experiment: Antibacterial spectrum, MIC on agar (Table 3); format: cell-based; conditions: NIHJJC2, Bacto-Antibiotic Medium 3 + yeast extract + agar, inoculum approx. 10^6 CFU/mℓ, dihydrochlorides, read-out: Minimal Inhibitory Concentration
Source text: as §1

[3] = system: Klebsiella pneumoniae IFO 3317; experiment: Antibacterial spectrum, MIC on agar (Table 3); format: cell-based; conditions: IFO3317, Bacto-Antibiotic Medium 3 + yeast extract + agar, inoculum approx. 10^6 CFU/mℓ, dihydrochlorides, read-out: Minimal Inhibitory Concentration
Source text: as §1

[4] = system: Proteus morganii IFO 3168; experiment: Antibacterial spectrum, MIC on agar (Table 3); format: cell-based; conditions: Morganella morganii, IFO3168, Bacto-Antibiotic Medium 3 + yeast extract + agar, inoculum approx. 10^6 CFU/mℓ, dihydrochlorides, read-out: Minimal Inhibitory Concentration
Source text: as §1

[5] = system: Proteus vulgaris IFO 3988; experiment: Antibacterial spectrum, MIC on agar (Table 3); format: cell-based; conditions: IFO3988, Bacto-Antibiotic Medium 3 + yeast extract + agar, inoculum approx. 10^6 CFU/mℓ, dihydrochlorides, read-out: Minimal Inhibitory Concentration
Source text: as §1

[6] = system: Pseudomonas aeruginosa IFO 3080; experiment: Antibacterial spectrum, MIC on agar (Table 3); format: cell-based; conditions: Bacto-Antibiotic Medium 3 + yeast extract + agar, inoculum approx. 10^6 CFU/mℓ, dihydrochlorides
Source text: as §1

[7] = system: Staphylococcus aureus FDA 209P; experiment: Antibacterial spectrum, MIC on agar (Table 3); format: cell-based; conditions: Bacto-Antibiotic Medium 3 + yeast extract + agar, inoculum approx. 10^6 CFU/mℓ, dihydrochlorides
Source text: as §1

Escherichia coli T7 [8] = experiment: Antibacterial spectrum, MIC by agar dilution method (Table 4); format: cell-based; conditions: inoculum 10^8 CFU/mℓ, dihydrochlorides
Source text: as §1

[9] = system: Pseudomonas aeruginosa P9; experiment: as above; format: cell-based; conditions: medium B-TSA (10% horse serum/TSA), inoculum 10^8 CFU/mℓ, dihydrochlorides, read-out: Minimal Inhibitory Concentration
Source text: as §1

[10] = system: Staphylococcus aureus 1840 S; experiment: MIC against clinically isolated Staphylococcus aureus strains (Table 5); format: cell-based; conditions: strain 1840 S, resistance type None, agar dilution method, Mueller Hinton medium, inoculum 10^6CFU/mℓ, read-out: Minimal Inhibitory Concentration
[11] = system: Staphylococcus aureus 1840-2; experiment: as above; format: cell-based; conditions: 18402, strain 1840-2, resistance type Penicillin G, agar dilution method, Mueller Hinton medium, inoculum 10^6CFU/mℓ, read-out: Minimal Inhibitory Concentration
[12] = system: Staphylococcus aureus TN 2613; experiment: as above; format: cell-based; conditions: TN2613, strain TN 2613, resistance type Methicillin, agar dilution method, Mueller Hinton medium, inoculum 10^6CFU/mℓ, read-out: Minimal Inhibitory Concentration
[13] = system: Staphylococcus aureus TN 2648; experiment: as above; format: cell-based; conditions: TN2648, strain TN 2648, resistance type Methicillin, agar dilution method, Mueller Hinton medium, inoculum 10^6CFU/mℓ, read-out: Minimal Inhibitory Concentration
[14] = system: Staphylococcus aureus TN 2687; experiment: as above; format: cell-based; conditions: TN2687, strain TN 2687, resistance type Macrolide, agar dilution method, Mueller Hinton medium, inoculum 10^6CFU/mℓ, read-out: Minimal Inhibitory Concentration
[15] = system: Staphylococcus aureus TN 2684; experiment: as above; format: cell-based; conditions: TN2684, strain TN 2684, resistance type Macrolide, agar dilution method, Mueller Hinton medium, inoculum 10^6CFU/mℓ, read-out: Minimal Inhibitory Concentration
[16] = system: Staphylococcus aureus TN 2688; experiment: as above; format: cell-based; conditions: TN2688, strain TN 2688, resistance type Macrolide, agar dilution method, Mueller Hinton medium, inoculum 10^6CFU/mℓ, read-out: Minimal Inhibitory Concentration
Escherichia coli 0-111 = experiment: Therapeutic effects on infectious diseases in mice (Table 6); format: in vivo; conditions: mice infected with Escherichia coli 0-111, route Subcutaneous, dihydrochlorides
Escherichia coli T7 [17] = experiment: as above; format: in vivo; conditions: sc; mice infected with Escherichia coli T7; route Subcutaneous; dihydrochlorides
[18] = system: Pseudomonas aeruginosa P-9; experiment: as above; format: in vivo; conditions: P9, sc; mice infected with Pseudomonas aeruginosa P-9; route Subcutaneous; dihydrochlorides
[19] = system: Staphylococcus aureus 308A-1; experiment: as above; format: in vivo; conditions: 308A1, po, mice infected with Staphylococcus aureus 308A-1, dihydrochlorides
[20] = Acute toxicities on mice (Table 7); conditions: mouse, in vivo, dihydrochlorides
[21] = system: Acinetobacter calcoaceticus IFO 13006; experiment: Antibacterial spectrum, MIC on agar (Table 3); format: cell-based; conditions: Bacto-Antibiotic Medium 3 + yeast extract + agar, inoculum approx. 10^6 CFU/mℓ, dihydrochlorides, listed as C
Source text: as §1

[22] = system: Staphylococcus aureus 308A-1; experiment: Antibacterial spectrum, MIC by agar dilution method (Table 4); format: cell-based; conditions: medium TSA, inoculum 10^8 CFU/mℓ, dihydrochlorides, listed as C
Source text: as §1

[23] = system: Staphylococcus aureus FDA209P; experiment: as above; format: cell-based; conditions: medium B-TSA (10% horse serum/TSA), inoculum 10^8 CFU/mℓ, dihydrochlorides, listed as C
Source text: as §1

[24] = system: Streptococcus pyogenes E-14; experiment: as above; format: cell-based; conditions: medium B-TSA (10% horse serum/TSA), inoculum 10^8 CFU/mℓ, dihydrochlorides, listed as C
Source text: as §1

For CC=CC=CC(=O)NCC(O)CC(N)CC(=O)NCCC(=N)N (stereo not shown) [TAN-749A], the MIC ([1]; Citrobacter freundii, IFO12681, Citrobacter freundii IFO 12681, read-out: Minimal Inhibitory Concentration) was at least 100 µg/mL, the MIC [2] was over 100 µg/mL and the MIC [3] was over 100 µg/mL. It also gave an MIC [4] of over 100 µg/mL, an MIC [5] of 100 µg/mL and an MIC ([6]; Pseudomonas aeruginosa, IFO3080, Pseudomonas aeruginosa IFO 3080, read-out: Minimal Inhibitory Concentration) of 25 µg/mL. The MIC ([7]; Staphylococcus aureus, FDA209P, read-out: Minimal Inhibitory Concentration) was 50 µg/mL, the MIC (Escherichia coli T7 [8]; Escherichia coli, T7, Escherichia coli T7, medium TSA, read-out: Minimal Inhibitory Concentration) was 50 µg/mL (≈ 154 µM) and the MIC [9] was 100 µg/mL (≈ 307 µM). For the same molecule, the MIC [10] was 12.5 µg/mL (≈ 38.4 µM), the MIC [11] was 12.5 µg/mL (≈ 38.4 µM) and the MIC [12] was 6.25 µg/mL (≈ 19.2 µM). For the same molecule, the MIC [13] was 3.13 µg/mL (≈ 9.62 µM), the MIC [14] was 6.25 µg/mL (≈ 19.2 µM) and the MIC [15] was 6.25 µg/mL (≈ 19.2 µM). For the same molecule, the MIC [16] was 6.25 µg/mL (≈ 19.2 µM), the ED50 (Escherichia coli 0-111; Escherichia coli, 0111, sc, read-out: ED50) was 67.2 mg/kg and the ED50 (Escherichia coli T7 [17]) was 50.8 mg/kg. It also gave an ED50 [18] of 31 mg/kg, an ED50 [19] of 17.7 mg/kg and an LD50 ([20]; route Oral) of 2000 to 4000 mg/kg. It also gave an LD50 ([20]; sc, route Subcutaneous) of about 500 mg/kg.
For CC=CC=CC(=O)NCC(O)CC(N)CC(=O)NCCC(=N)N (stereo not shown) [TAN-749C], the “Minimal Inhibitory Concentration” value [21] was over 100 µg/mL, the “Minimal Inhibitory Concentration” value ([1]; Citrobacter freundii IFO 12681, listed as C) was over 100 µg/mL and the “Minimal Inhibitory Concentration” value ([6]; Pseudomonas aeruginosa IFO 3080, listed as C) was 50 µg/mL. For the same molecule, the “Minimal Inhibitory Concentration” value ([7]; listed as C) was over 100 µg/mL, the “Minimal Inhibitory Concentration” value (Escherichia coli T7 [8]; Escherichia coli T7, medium TSA, listed as C) was over 100 µg/mL and the “Minimal Inhibitory Concentration” value [22] was over 100 µg/mL. The “Minimal Inhibitory Concentration” value [23] was over 100 µg/mL, the “Minimal Inhibitory Concentration” value [24] was 100 µg/mL and the ED50 (Escherichia coli 0-111; listed as C) was 50 mg/kg.
